Results as given in patent US12031160B2, “Method for the production of glufosinate-ammonium” (ZHEJIANG UNIVERSITY OF TECHNOLOGY, priority 2018, dated 2024).

What was measured:
[1] = molecular target: Pseudomonas moorei glufosinate-ammonium dehydrogenase E3 (PPTGDH, PPTGDHE3, WP_090325311.1), wild type, SEQ ID NO: 6 (Pseudomonas moorei, UniProt A0A1H1HZ48); assay: Kinetic parameters of purified original glufosinate-ammonium dehydrogenase PPTGDH; details: pH 7.4, 35° C.
Description: (§1) 1. […] The mutant proteins were purified by Ni-NTA column(1.6×10 cm, Bio-Rad, the USA), and the specific operations were carried out as follows: (1)equilibrate a Ni-NTA column with 5 column volumes of a binding buffer(pH 8.0, 50 mM sodium phosphate buffer containing 0.3 M NaCl) until the baseline is steady; (2)load the sample with a flow rate of 1 mL/min with the amount of the loading sample of 25-40 mg/mL, thereby attaching the target protein to the Ni-NTA column; (3)wash the column with 6 column volumes of buffer A (pH 8.0, 50 mM sodium phosphate buffer containing 0.3 M NaCl and 30 mM imidazole) at a flow rate of 1 mL/min until the baseline is steady; (4)wash the column with buffer B (pH 8.0, 50 mM sodium phosphate buffer containing 0.3 M NaCl and 500 mM imidazole) at a flow rate of 1 mL/min, collect the target protein and dialyze overnight in a pH 7.5, 20 mM phosphate buffer, thereby obtaining the pure glufosinate-ammonium dehydrogenase; and (5)wash the Ni-NTA column with 5 column volumes of a binding buffer(pH 8.0, 50 mM sodium phosphate buffer containing 0.3 M NaCl) until the baseline is steady, and store the Ni-NTA column in 5 column volumes of ultrapure water containing 20% ethanol.

[2] = molecular target: Pseudomonas moorei glufosinate-ammonium dehydrogenase E3 (SEQ ID NO: 6) variant PPTGDH-L107R-F188P-G239K-F357G, SEQ ID NO: 9 (Pseudomonas moorei, UniProt A0A1H1HZ48, F188P/F357G/G239K/L107R); assay: Kinetic parameters of purified mutant PPTGDH-L107R-F188P-G239K-F357G
Description: as §1

Row | SMILES | kcat/Km^B (PPO) [1] | catalytic efficiency kcat/Km^B (PPO), times higher than that of the original enzyme ([2]; mutant vs original enzyme) | kcat/Km^B (PPO) ([2]; pH 7.4, 35° C.) | catalytic efficiency for the coenzyme NADPH, times higher than that of the original enzyme ([2]; mutant vs original enzyme) | kcat/Km^A (NADPH) ([2]; pH 7.4, 35° C.)
1 | CP(=O)(O)CCC(=O)C(=O)O [PPO, 2-carbonyl-4-[(hydroxy)(methyl)phosphinoyl]-butyric acid] | 15220 M⁻¹ s⁻¹ | 22.19 times | 337730 M⁻¹ s⁻¹ | – | –
2 | NC(=O)C1=CN([C@@H]2O[C@H](COP(=O)(O)OP(=O)(O)OC[C@H]3O[C@@H](n4cnc5c(N)ncnc54)[C@H](OP(=O)(O)O)[C@@H]3O)[C@@H](O)[C@H]2O)C=CC1 [NADPH] | – | – | – | 34.61 times | 1.3703e+07 M⁻¹ s⁻¹
